Measured values as given in patent US6737383B1, “Herbicidal oxadiazolidines” (priority 1999, dated 2004).

Legend:
blackgrass = assay: Test B pre/postemergence blackgrass; assay type: in vivo, Alopecurus myosuroides
Method in brief: (§1)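 Test chemicals in a non-phytotoxic solvent mixture with surfactant were sprayed preemergence onto planted seeds and postemergence onto plants 2 to 18 cm tall (1- to 4-leaf stage). After twelve to sixteen days in a greenhouse, injury was visually rated against untreated controls from 0 (no effect) to 10 (complete control).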

wheat = assay: Test B pre/postemergence wheat; assay type: in vivo, Triticum aestivum; conditions: for Plant response rating, Wheat: scale of 0 to 10 where 0 is no effect and 10 is complete control
Method in brief: as §1

smallflower flatsedge = assay: Test B flood test smallflower flatsedge; assay type: in vivo, Cyperus difformis
Method in brief: (§2)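 Plants were grown to the 2-leaf stage before treatment with test chemical, then held in a greenhouse for twelve to sixteen days. Injury was visually rated against untreated controls on a 0–10 scale, where 0 is no effect and 10 is complete control.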

crabgrass = assay: Test B pre/postemergence crabgrass; assay type: in vivo, Digitaria sanguinalis
Method in brief: as §1

surinam grass = assay: Test B pre/postemergence surinam grass; assay type: in vivo, Brachiaria decumbens
Method in brief: as §1

morningglory = assay: Test B pre/postemergence morningglory; assay type: in vivo, Ipomoea hederacea; conditions: for Plant response rating, Morningglory: scale of 0 to 10 where 0 is no effect and 10 is complete control
Method in brief: as §1

giant foxtail = assay: Test B pre/postemergence giant foxtail; assay type: in vivo, Setaria faberii
Method in brief: as §1

purple nutsedge = assay: Test B pre/postemergence purple nutsedge; assay type: in vivo, Cyperus rotundus; conditions: for Plant response rating, Nutsedge: scale of 0 to 10 where 0 is no effect and 10 is complete control
Method in brief: as §1

velvetleaf = assay: Test B pre/postemergence velvetleaf; assay type: in vivo, Abutilon theophrasti; conditions: for Plant response rating, Velvetleaf: scale of 0 to 10 where 0 is no effect and 10 is complete control
Method in brief: as §1

bamyardgrass = assay: Test B flood test barnyardgrass; assay type: in vivo, Echinochloa crus-galli
Method in brief: as §2

corn = assay: Test B pre/postemergence corn; assay type: in vivo, Zea mays
Method in brief: as §1

duck salad = assay: Test B flood test duck salad; assay type: in vivo, Heteranthera limosa
Method in brief: as §2

bedstraw = assay: Test B pre/postemergence bedstraw; assay type: in vivo, Galium aparine; conditions: Preemergence, Rate 250 g/ha; scale 0 to 10, 0 is no effect, 10 is complete control
Method in brief: as §1

cocklebur = assay: Test B pre/postemergence cocklebur; assay type: in vivo, Xanthium strumarium
Method in brief: as §1

wild oat = assay: Test B pre/postemergence wild oat; assay type: in vivo, Avena fatua; conditions: for Plant response rating, Wild oats: scale of 0 to 10 where 0 is no effect and 10 is complete control
Method in brief: as §1

rice = assay: Test B flood test rice; assay type: in vivo, Oryza sativa
Method in brief: as §2

soybean = assay: Test B pre/postemergence soybean; assay type: in vivo, Glycine max; conditions: for Plant response rating, Soybean: scale of 0 to 10 where 0 is no effect and 10 is complete control
Method in brief: as §1

[1] = Postemergence, Rate 250 g/ha, scale 0 to 10
[2] = Postemergence, Rate 500 g/ha, scale of 0 to 10 where 0 is no effect and 10 is complete control
[3] = Preemergence, Rate 62 g/ha, scale of 0 to 10 where 0 is no effect and 10 is complete control
[4] = Preemergence, Rate 125 g/ha, scale of 0 to 10 where 0 is no effect and 10 is complete control
[5] = Preemergence, Rate 250 g/ha, scale 0 to 10, 0 is no effect, 10 is complete control
[6] = Preemergence, Rate 500 g/ha, scale 0 to 10, 0 is no effect, 10 is complete control
[7] = Rate 62 g/ha, Postemergence, scale 0 to 10 (0 no effect, 10 complete control)
[8] = Rate 125 g/ha, Postemergence, scale 0 to 10, 0 is no effect, 10 is complete control
[9] = Rate 62 g/ha, flood test species, Pre-emergence, visual evaluation after twelve to sixteen days
[10] = Rate 125 g/ha, under heading Pre-emergence, flood test species, visual evaluation after twelve to sixteen days
[11] = Rate 250 g/ha, Pre-emergence (flood test species), scale 0 to 10, 0 is no effect, 10 is complete control
[12] = Rate 500 g/ha, Pre-emergence, flood test species, scale 0 to 10 (0 no effect, 10 complete control)

CC(C)N(C(=O)n1oc(=O)n(CCC[Si](C)(C)C)c1=O)c1ccc(F)cc1 [Compound 461]
Blackgrass plant response rating (blackgrass; [1]): 0 | Blackgrass plant response rating (blackgrass; [2]): 3 | Plant response rating, Blackgrass (blackgrass; [3]): 0 | Plant response rating, Blackgrass (blackgrass; [4]): 0 | Blackgrass plant response rating (blackgrass; [5]): 0 | Blackgrass plant response rating (blackgrass; [6]): 0 | Blackgrass plant response rating (blackgrass; [7]): 0 | Blackgrass plant response rating (blackgrass; [8]): 0 | Wheat plant response rating (wheat; [1]): 0 | Plant response rating, Wheat (wheat; Preemergence, Rate 62 g/ha): 0 | Plant response rating, Wheat (wheat; Preemergence, Rate 125 g/ha): 0 | Wheat plant response rating (wheat; [5]): 0 | Wheat plant response rating (wheat; [6]): 0 | Wheat plant response rating (wheat; [7]): 0 | Wheat plant response rating (wheat; [8]): 0 | Plant response rating, S. Flatsedge (0 to 10 scale, 0 is no effect, 10 is complete control) (smallflower flatsedge; [9]): 0 | S. Flatsedge plant response rating (0 to 10 scale, 0 is no effect, 10 is complete control) (smallflower flatsedge; [10]): 0 | S. Flatsedge plant response rating (smallflower flatsedge; [11]): 0 | S. Flatsedge plant response rating (smallflower flatsedge; [12]): 0 | Crabgrass plant response rating (crabgrass; [1]): 0 | Crabgrass plant response rating (crabgrass; [2]): 2 | Plant response rating, Crabgrass (crabgrass; [3]): 0 | Plant response rating, Crabgrass (crabgrass; [4]): 0 | Crabgrass plant response rating (crabgrass; [5]): 0 | Crabgrass plant response rating (crabgrass; [6]): 3 | Crabgrass plant response rating (crabgrass; [7]): 0 | Crabgrass plant response rating (crabgrass; [8]): 0 | B. signalgrass plant response rating (surinam grass; Postemergence, Rate 250 g/ha, scale 0 to 10, 0 no effect, 10 complete control): 0 | B. signalgrass plant response rating (surinam grass; [2]): 0 | Plant response rating, B. signalgrass (surinam grass; [3]): 0 | Plant response rating, B. signalgrass (surinam grass; [4]): 0 | B. signalgrass plant response rating (surinam grass; [5]): 0 | B. signalgrass plant response rating (surinam grass; [6]): 0 | B. signalgrass plant response rating (surinam grass; [7]): 0 | B. signalgrass plant response rating (surinam grass; [8]): 0 | Morningglory plant response rating (morningglory; [1]): 7 | Plant response rating, Morningglory (morningglory; Preemergence, Rate 62 g/ha): 0 | Plant response rating, Morningglory (morningglory; Preemergence, Rate 125 g/ha): 0 | Morningglory plant response rating (morningglory; [5]): 0 | Morningglory plant response rating (morningglory; [6]): 0 | Morningglory plant response rating (morningglory; [7]): 3 | Morningglory plant response rating (morningglory; [8]): 7 | Giant foxtail plant response rating (giant foxtail; [1]): 0 | Giant foxtail plant response rating (giant foxtail; [2]): 0 | Plant response rating, Giant foxtail (giant foxtail; [3]): 0 | Plant response rating, Giant foxtail (giant foxtail; [4]): 0 | Giant foxtail plant response rating (giant foxtail; [5]): 0 | Giant foxtail plant response rating (giant foxtail; [6]): 3 | Giant foxtail plant response rating (giant foxtail; [7]): 0 | Giant foxtail plant response rating (giant foxtail; [8]): 0 | Nutsedge plant response rating (purple nutsedge; [1]): 0 | Plant response rating, Nutsedge (purple nutsedge; Preemergence, Rate 62 g/ha): 0 | Plant response rating, Nutsedge (purple nutsedge; Preemergence, Rate 125 g/ha): 0 | Nutsedge plant response rating (purple nutsedge; [5]): 0 | Nutsedge plant response rating (purple nutsedge; [6]): 0 | Nutsedge plant response rating (purple nutsedge; [7]): 0 | Nutsedge plant response rating (purple nutsedge; [8]): 0 | Velvetleaf plant response rating (velvetleaf; [1]): 0 | Plant response rating, Velvetleaf (velvetleaf; Preemergence, Rate 62 g/ha): 0 | Plant response rating, Velvetleaf (velvetleaf; Preemergence, Rate 125 g/ha): 0 | Velvetleaf plant response rating (velvetleaf; [5]): 0 | Velvetleaf plant response rating (velvetleaf; [6]): 0 | Velvetleaf plant response rating (velvetleaf; [7]): 0 | Velvetleaf plant response rating (velvetleaf; [8]): 0 | Plant response rating, Barnyardgrass (0 to 10 scale, 0 is no effect, 10 is complete control) (bamyardgrass; [9]): 0 | Barnyardgrass plant response rating (0 to 10 scale, 0 is no effect, 10 is complete control) (bamyardgrass; [10]): 0 | Barnyardgrass plant response rating (bamyardgrass; [11]): 0 | Barnyardgrass plant response rating (bamyardgrass; [12]): 0 | Corn plant response rating (corn; [1]): 0 | Corn plant response rating (corn; [2]): 0 | Plant response rating, Corn (corn; [3]): 0 | Plant response rating, Corn (corn; [4]): 0 | Corn plant response rating (corn; [5]): 0 | Corn plant response rating (corn; [6]): 0 | Corn plant response rating (corn; [7]): 0 | Corn plant response rating (corn; [8]): 0 | Plant response rating, Ducksalad (0 to 10 scale, 0 is no effect, 10 is complete control) (duck salad; [9]): 0 | Ducksalad plant response rating (0 to 10 scale, 0 is no effect, 10 is complete control) (duck salad; [10]): 0 | Ducksalad plant response rating (duck salad; [11]): 0 | Ducksalad plant response rating (duck salad; [12]): 0 | Bedstraw plant response rating (bedstraw): 0 | Cocklebur plant response rating (cocklebur; [1]): 0 | Cocklebur plant response rating (cocklebur; [2]): 3 | Plant response rating, Cocklebur (cocklebur; [3]): 0 | Plant response rating, Cocklebur (cocklebur; [4]): 0 | Cocklebur plant response rating (cocklebur; [5]): 0 | Cocklebur plant response rating (cocklebur; [6]): 0 | Cocklebur plant response rating (cocklebur; [7]): 0 | Cocklebur plant response rating (cocklebur; [8]): 0 | Wild oats plant response rating (wild oat; [1]): 0 | Plant response rating, Wild oats (wild oat; Preemergence, Rate 62 g/ha): 0 | Plant response rating, Wild oats (wild oat; Preemergence, Rate 125 g/ha): 0 | Wild oats plant response rating (wild oat; [5]): 0 | Wild oats plant response rating (wild oat; [6]): 0 | Wild oats plant response rating (wild oat; [7]): 0 | Wild oats plant response rating (wild oat; [8]): 0 | Plant response rating, Rice (0 to 10 scale, 0 is no effect, 10 is complete control) (rice; [9]): 0 | Rice plant response rating (0 to 10 scale, 0 is no effect, 10 is complete control) (rice; [10]): 0 | Rice plant response rating (rice; [11]): 0 | Rice plant response rating (rice; [12]): 0 | Soybean plant response rating (soybean; [1]): 3 | Plant response rating, Soybean (soybean; Preemergence, Rate 62 g/ha): 0 | Plant response rating, Soybean (soybean; Preemergence, Rate 125 g/ha): 0 | Soybean plant response rating (soybean; [5]): 0 | Soybean plant response rating (soybean; [6]): 0 | Soybean plant response rating (soybean; [7]): 2 | Soybean plant response rating (soybean; [8]): 3
